Data published in patent publication US20250263441A1 (Metanovas Biotech Inc., priority 2024, published 2025).
“And” between values parts separate entries of the source, which are not always exact repeats. Identical values can stand only once.

Key:
Type in all cases: cell-based
Candida albicans = experiment: Minimum inhibitory concentration on Candida albicans (liquid culture); settings: 37° C., 24 to 48 hours
Protocol: Primary screening of liquid culture: the peptides in Examples 1 to 2 were dissolved in pure water to a concentration of 100 μg/mL. Using a micropipette, 10 μL of the peptides were added to a new 96-well plate in order from left to right, starting from the second compartment. Positive and negative controls were established for use. The 96-well plates were arranged vertically, and the peptide concentrations of the control groups were the same as those of the antimicrobial peptide. The control groups consisted of: pure water and bacteria, antimicrobial peptide FK13 and bacteria, and antimicrobial peptide HPA3NT3 and bacteria. An aseptic medium was used. The amino acid sequence of FK13 is […] (SEQ ID NO: 5), and the amino acid sequence of HPA3NT3 is […] (SEQ ID NO: 6).
(§1) If a 96-deep-well plate was used to culture bacteria, an additional 100 μL of sterile medium was added to all wells.
Candida albicans was inoculated in LB medium with normal oxygen concentration (21%) for 48 hours. […] clones were picked and incubated in LB medium at 37° C. with normal oxygen concentration (21%) for 48 hours. The bacterial concentration was measured and diluted to 107 CFU/mL with culture medium for use.
The prepared fresh bacterial suspension was diluted to 105 CFU/mL and added to the 96-well plate with 90 μL of the bacterial suspension per well, and incubated at 37° C. with normal oxygen concentration for 24 to 48 hours. The absorbance at 630 nm was measured with a microplate reader, and the degree of turbidity was observed by the naked eye.
(§2) (iv) Repetition of Operations: The Operations in (iii) were Repeated Twice, and the Decision to Perform a Third Repetition was Based on the Reproducibility of the Experiment.

Staphylococcus aureus = experiment: Minimum inhibitory concentration on Staphylococcus aureus (liquid culture); settings: 37° C., 24 to 48 hours
Protocol: (§3) Primary screening of liquid culture: the peptides in Examples 1 to 2 were dissolved in pure water to a concentration of 100 μg/mL. Using a micropipette, 10 μL of the peptides were added to a new 96-well plate in order from left to right, starting from the second compartment. Positive and negative controls were established for use. The 96-well plates were arranged vertically, and the peptide concentrations in the control groups were the same as those of the antimicrobial peptides. The control groups included: pure water and bacteria, antimicrobial peptide FK13 and bacteria, antimicrobial peptide HPA3NT3 and bacteria, and ciprofloxacin and bacteria. An aseptic medium was used.
as §1
Staphylococcus aureus was inoculated in LB medium with a normal oxygen concentration (21%) for 48 hours. Staphylococcus aureus clones were picked and incubated in LB medium at 37° C. with a normal oxygen concentration (21%) for an additional 48 hours. The bacterial concentration was measured and diluted to 107 CFU/mL with culture medium for use.
(§4) The prepared fresh bacterial suspension was diluted to 105 CFU/mL and added to the 96-well plate with 90 μL of the bacterial suspension per well. The plate was incubated at 37° C. with a normal oxygen concentration for 24 to 48 hours (Propionibacterium acnes was cultured anaerobically at 37° C. for 24 to 48 hours in an anaerobic bag). The absorbance at 630 nm was measured using a microplate reader, and the degree of turbidity was observed by the naked eye.
as §2

Propionibacterium acnes = experiment: Minimum inhibitory concentration on Propionibacterium acnes (liquid culture); settings: anaerobic, 37° C., 24 to 48 hours
Protocol: as §3, §1
Propionibacterium acnes was inoculated on an anaerobic blood agar plate, placed in an anaerobic bag, and incubated anaerobically at 37° C. for 48 hours. Propionibacterium acnes clones were then picked and incubated anaerobically in liquid anaerobic broth medium at 37° C. for an additional 48 hours. The bacterial concentration was measured and diluted to 107 CFU/mL with culture medium.
as §4, §2

[1] = test system: Escherichia coli (ATCC: 25922); experiment: Inhibitory effect of AMP-33 on Escherichia coli (viability, OD 630 nm); settings: for Viability of Escherichia coli: 24 hours, repeated experiments
Protocol: (1) Staphylococcus aureus and Escherichia coli were inoculated into LB liquid medium and cultured overnight under aerobic conditions at 37° C. and […] on a shaker.
(2) 200 μL of LB liquid culture medium and a predetermined concentration of peptide AMP-33 were added to a 96-deep-well plate. Then, 10 μL of the Staphylococcus aureus/Escherichia coli solution was inoculated (mixed well before inoculation).
(3) After incubating at […] for 24 hours on a shaking table at 37° C., the turbidity of the bacterial solution was observed. A volume of 100 μL of the solution was taken, and the OD at 630 nm was measured using an enzyme-linked immunosorbent assay (ELISA) reader (after multiple blows and mixing).
[formula] • OD Measurement: OD value of the test peptide. • ODneg: OD value with no bacterial inoculation, containing only […] medium. • ODpos: OD value with bacterial inoculation and without inhibitors.

Streptococcus mutans = experiment: Inhibitory effect of AMP-33 on Streptococcus mutans; settings: 5 and 10 μg/mL, 16 hours
Protocol: (1) Streptococcus mutans was cultured to the logarithmic phase, then 5 mL of the bacterial solution was centrifuged at 5,000 g for 10 minutes. The organisms were resuspended in Brain-Heart Infusion (BHI) medium, and the concentration of the bacterial solution was adjusted to approximately 2×10^5 CFU/mL using pre-configured McClure's turbidimetric tubes.
(2) Streptococcus mutans was cultured in a microtiter plate (96 wells), and 50 μL of different AMP33 peptides were added (at concentrations of 5 and 10 μg/mL). Then, 100 μL of diluted Streptococcus mutans bacterial fluid was added, followed by 50 μL of BHI medium, resulting in a final concentration of 1×10^5 CFU/mL.
(3) A blank control was provided with equal amounts of medium solution and bacterial solution as that of the experimental group, with at least 3 replicates for each treatment group.
(4) The 96-well plate was placed in a bacterial incubator at 37° C. and incubated at 150 rpm for 16 hours.

[2] = test system: Mouse macrophage RAW264.7 cells; experiment: NO concentration after treatment of LPS-stimulated RAW264.7 cells; settings: LPS 10 ng/ml, 24 hours, replicate experiments
Protocol: (1) Mouse macrophage RAW264.7 cells were cultured in DMEM supplemented with 10% fetal bovine serum (FBS) and 1% penicillin and streptomycin (P/S) at 37° C. in a 5% CO2 incubator.
(2) 5×10^4 mouse-derived RAW264.7 macrophages were placed in 12-well cell culture plates and cultured for 24 hours. Then, 20 μL of PBS (negative control), Dexamethasone (positive control), and the test peptide were added to the wells for incubation for 2 hours. Afterward, 10 ng/ml of lipopolysaccharide (LPS) was mixed with RAW264.7 cells and incubated for 24 hours.
(3) The supernatant was collected, and NO and IL-6/IL-1ß expression levels were measured using a commercial kit.

## Example 2: LSKWLKKLGKLLAG (designated as AMP33)
Candida albicans
  Minimum inhibitory concentration on Candida albicans: 25 µg/mL
Staphylococcus aureus
  Minimum inhibitory concentration on Staphylococcus aureus: 12.5 µg/mL
Propionibacterium acnes
  Minimum inhibitory concentration on Propionibacterium acnes: 4 µg/mL
[1]; 1 μg/mL
  Viability of Escherichia coli: 110.11 and 91.93 and 82.94
[1]; 2 μg/mL
  Viability of Escherichia coli: 89.71 and 90.4 and 98.53
[1]; 4 μg/mL
  Viability of Escherichia coli: 86.48 and 70.83 and 70.35
[1]; 8 μg/mL
  Viability of Escherichia coli: 78.87 and 50.46 and 73.2
[1]; 25 μg/mL
  Viability of Escherichia coli: 74.99 and 38.97 and 51.39
[1]; 25 ppm
  inhibition of Escherichia coli: over 99%
Streptococcus mutans
  inhibition rate of Streptococcus mutans: approximately 100%
[2]; AMP-33 2 μg/mL
  NO concentration: 12.70 µM and 13.54 µM and 13.37 µM
[2]; AMP-33 4 μg/mL
  NO concentration: 12.35 µM and 12.14 µM and 11.10 µM
[2]; AMP-33 8 μg/mL
  NO concentration: 10.26 µM and 10.75 µM and 11.10 µM
[2]; AMP-33 25 μg/mL
  NO concentration: 2.82 µM and 2.89 µM and 3.83 µM
[2]; AMP-33 50 μg/mL
  NO concentration: 1.27 µM and 1.33 µM and 1.60 µM
[2]; AMP-33 100 μg/mL
  NO concentration: 1.60 µM and 1.13 µM and 1.54 µM
